Laboratory results taken from ChEMBL document CHEMBL1150891, “Isolation of 1-carboxymethylnicotinic acid from the marine sponge anthosigmella cf. raromicrosclera As a cysteine protease inhibitor1” (J Nat Prod, 1998).

Target: T1, Papain (Carica papaya, UniProt P00784)
T1 sequence (P00784 whole entry): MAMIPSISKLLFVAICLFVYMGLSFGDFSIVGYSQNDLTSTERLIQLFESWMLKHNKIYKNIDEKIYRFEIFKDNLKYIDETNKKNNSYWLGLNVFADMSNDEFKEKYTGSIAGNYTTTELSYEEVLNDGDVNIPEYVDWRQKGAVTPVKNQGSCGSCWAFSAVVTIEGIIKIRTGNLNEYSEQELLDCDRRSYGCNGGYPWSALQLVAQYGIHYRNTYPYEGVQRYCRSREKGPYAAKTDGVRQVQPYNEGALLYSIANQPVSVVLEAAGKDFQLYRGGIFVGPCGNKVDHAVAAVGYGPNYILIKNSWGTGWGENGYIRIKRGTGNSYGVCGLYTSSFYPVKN
Assay: Inhibition of Carica papaya papain

IC50: 442 µM
Compound: O=C([O-])C[n+]1cccc(C(=O)O)c1
